Consider one compound from patent publication US8017614B2, “Arylindenopyrimidines compound and use as an adenosine A2a receptor antagonists” (priority 2007, dated 2011).

One experiment addresses T1, A1 (Homo sapiens, UniProt P30542).
T1 sequence (P30542 1-326): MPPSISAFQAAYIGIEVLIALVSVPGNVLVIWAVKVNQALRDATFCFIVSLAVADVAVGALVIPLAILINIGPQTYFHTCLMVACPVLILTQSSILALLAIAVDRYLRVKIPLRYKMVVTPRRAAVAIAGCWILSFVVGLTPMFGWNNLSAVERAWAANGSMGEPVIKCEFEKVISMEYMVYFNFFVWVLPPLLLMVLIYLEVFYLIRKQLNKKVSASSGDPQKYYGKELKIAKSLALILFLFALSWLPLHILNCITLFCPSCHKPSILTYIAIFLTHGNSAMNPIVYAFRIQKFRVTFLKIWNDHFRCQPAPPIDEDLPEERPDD
As to the kind of experiment: A1 cell-based functional assay.

In experiment [1] the target is T2, human adenosine A2a receptors (Homo sapiens, UniProt P29274).
T2 construct: expressed in transfected cells; host or cells: CHO-K1
T2 sequence (P29274 whole entry): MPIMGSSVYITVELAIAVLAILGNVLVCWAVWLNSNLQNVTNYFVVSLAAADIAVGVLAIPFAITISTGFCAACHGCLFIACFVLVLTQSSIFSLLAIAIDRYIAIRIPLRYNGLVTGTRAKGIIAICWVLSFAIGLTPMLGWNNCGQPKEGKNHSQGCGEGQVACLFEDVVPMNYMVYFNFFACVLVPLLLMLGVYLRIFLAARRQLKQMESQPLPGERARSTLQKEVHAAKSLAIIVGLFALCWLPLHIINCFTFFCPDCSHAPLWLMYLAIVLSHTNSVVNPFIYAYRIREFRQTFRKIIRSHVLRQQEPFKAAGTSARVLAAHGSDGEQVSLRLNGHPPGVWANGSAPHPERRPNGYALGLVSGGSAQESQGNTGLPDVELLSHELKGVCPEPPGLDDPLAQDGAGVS
Kind of experiment: Adenosine A2a receptor functional assay (cAMP-inducible beta-galactosidase reporter, antagonist mode vs NECA). The following applies: CHO-K1 cells overexpressing human adenosine A2a receptors; 50 nM NECA; read-out: A2a cell-based functional Ki. As for the experimental part:
Ligand binding assay of adenosine A2a receptor was performed using plasma membrane of HEK293 cells containing human A2a adenosine receptor (PerkinElmer, RB-HA2a) and radioligand [3H] CGS21680 (PerkinElmer, NET1021). Assay was set up in 96-well polypropylene plate in total volume of 200, uL by sequentially adding 20 pL1:20 diluted membrane, pLassay buffer (50 mM Tris HCl, pH7.4 10 mM MgCl2, 1 mM EDTA) containing [3H] CGS2168O, 50, uL diluted compound (4×) or vehicle control in assay buffer. Nonspecific binding was determined by […] NECA. Reaction was carried out at room temperature for 2 hours before filtering through 96 well GF/C filter plate pre-soaked in 50 mM Tris HCl, pH7.4 containing 0.3% polyethylenimine. Plates were then washed 5 times with cold 50 mM Tris HCl, pH7.4, dried and sealed at the bottom. Microscintillation fluid 30, ul was added to each well and the top sealed. Plates were counted on Packard Topcount for [3H]. Data was analyzed in Microsoft Excel and GraphPad Prism programs. […] Plates were counted at 405 nm on Vmax Machine (Molecular Devices). Data was analyzed in Microsoft Excel and GraphPad Prism programs. […]

SMILES strings stand for the structures.

One may read the Ki as the dissociation constant of the complex between target and ligand, obtained from inhibition or displacement. Regarding `CN1CCN(C(=O)c2ccc3c(c2)-c2nc(N)nc(-c4ccccc4)c2C3=O)CC1` [Compound A, 2-Amino-8-(4-methyl-piperazine-1-carbonyl)-4-phenyl-indeno[1,2-d]pyrimidin-5-one], the figures for the Ki (on A1; in experiment [1]) were 58.4 nM and 8.2 nM, respectively.
